The term IC50 denotes the concentration at which inhibition is half-maximal.

For the first assay, the system named is MDA175-VII (NRG1-DOC4 fusion) cells. The assay is described as follows: Cell viability by Cell Titer Glo assay, 72 hours treatment. Conditions: 72 h, read-out: Average IC50. Format: cell-based. Here is the method: FIG. 1B. Representative dose response curves of MDA175-VII (NRG1-DOC4 fusion) treated with the indicated inhibitors for 72 hours. Cell viability was determined by Cell Titer Glo Assay.
Cell viability was determined by the Cell Titer Glo assay.
Drug screening and IC50 determination. Drug screening is performed as previously described. Briefly, cells are plated in 384-well plates (Greiner Bio-One) at 2000-3000 cells per well in technical triplicate. Seven different concentrations of covalent EGFR/HER2 TKIs and/or HER2/HER3 targeting antibodies or DMSO vehicle are added to reach a final volume of 40 μL per well. After 72 hours, 11 μL of Cell Titer Glo (Promega) is added to each well. Plates are incubated for a minimum of 10 minutes, and bioluminescence is determined using a FLUOstar OPTIMA plate reader (BMG LABTECH). Raw bioluminescence values are normalized to DMSO control treated cells, and values are plotted in GraphPad Prism. […] Drug screens are performed in technical triplicate on each plate and either duplicate or triplicate biological replicates.
Background: ATP-based viability assays read luminescence as a measure of living cells.
On to `CCOc1cc2ncc(C#N)c(Nc3ccc(OCc4ccccn4)c(Cl)c3)c2cc1NC(=O)/C=C/CN(C)C` [Neratinib, neratinib], for which the IC50 came to 0.747 nM.

The assay is the same for the next values; noted with them: MDA175-VII (NRG1-DOC4 fusion) cells, single HER2 inhibitor, 72 hours; read-out: Average IC50.
As for `C#Cc1cccc(Nc2ncnc3cc(OCCOC)c(OCCOC)cc23)c1` [Erlotinib, erlotinib], the IC50 worked out at 1440 nM.

With `CCOc1cc2ncc(C#N)c(Nc3ccc(OCc4ccccn4)c(Cl)c3)c2cc1NC(=O)/C=C/[C@H]1CCCN1C` [Pyrotinib, pyrotinib], the IC50 came to 10.4 nM.

`C=CC(=O)Nc1cc(Nc2nccc(-c3cn(C)c4ccccc34)n2)c(OC)cc1N(C)CCN(C)C` [Osimertinib, osimertinib]: the IC50 amounted to 459 nM.

`CN(C)C/C=C/C(=O)Nc1cc2c(Nc3ccc(F)c(Cl)c3)ncnc2cc1O[C@H]1CCOC1` [Afatinib, afatinib]: the IC50 worked out at 0.891 nM.

Take `COc1cc2ncnc(Nc3ccc(F)c(Cl)c3)c2cc1NC(=O)/C=C/CN1CCCCC1` [Dacomitinib, dacomitinib]: the IC50 was determined as 1.18 nM.

Regarding `CNC(=O)CN1CCC(Oc2cc3c(Nc4cccc(Cl)c4F)ncnc3cc2OC)CC1` [Sapitinib, sapitinib], the IC50 stood at 316 nM.

For `CS(=O)(=O)CCNCc1ccc(-c2ccc3ncnc(Nc4ccc(OCc5cccc(F)c5)c(Cl)c4)c3c2)o1` [Lapatinib, lapatinib], the IC50 is 98.6 nM.

With `C=CC(=O)N1CCC[C@@H](n2nc(-c3ccc(Oc4ccccc4)cc3)c3c(N)ncnc32)C1` [Ibrutinib, ibrutinib], the half-maximal inhibitory concentration (IC50) is 86.9 nM.

Staying with this assay, now noted: MDA175-VII cells, anti-HER2 antibody alone (+DMSO), 72 hours; read-out: Average IC50.
With T-DM1, the IC50 worked out at 653 nM.

On to “Pertuzumab: recombinant, humanized monoclonal antibody that inhibits dimerization of HER2”, for which the IC50 is 51.5 nM.

The assay is the same for the next values; noted with them: MDA175-VII cells, single agent.
Take “Pertuzumab: recombinant, humanized monoclonal antibody that inhibits dimerization of HER2”: the “inhibition of cell viability (in words)” value was “potently inhibited cell viability”.

The record behind these values is patent publication US20230112470A1, “USE OF EGFR/HER2 TYROSINE KINASE INHIBITORS AND/OR HER2/HER3 ANTIBODIES FOR THE TREATMENT OF CANCERS WITH NRG1 FUSIONS” (Board of Regents, The University of Texas System, priority 2020, published 2023).
